Among the data in US5391540A, “Substituted pyridine compounds” (Rohm and Haas Company, priority 1993, dated 1995) are inhibition values, retold here.

Each structure is given as a SMILES string.

Common to all, as to assay: Pre-emergent herbicidal activity (Table A)
What all share (type): in vivo

For assay [1], the system named is Quackgrass. The conditions noted are these: pre-emergence, Rhqg, 11.2 kg/ha, 10-14 days, read-out: herbicidal rating (% inhibition). The procedure, abridged: (§1)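 Seeds or perennial propagules set on compacted topsoil, then covered with soil mixed with a known amount of test compound applied in acetone or water carrier. Ratings assigned on a scale based on percent inhibition of each species.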

Assay [2] deals with Yellow Nutsedge. The conditions noted are these: Cyperus, pre-emergence, Yens, 11.2 kg/ha, 10-14 days, read-out: herbicidal rating (% inhibition). The procedure, abridged:
as §1

For assay [3], the system named is Rhizome Johnsongrass. The note with it: Sorghum halepense, pre-emergence, Rhjg, 11.2 kg/ha, 10-14 days, read-out: herbicidal rating (% inhibition). The procedure, abridged:
as §1

Assay [4] relates to Velvetleaf. The conditions noted are these: Abutilon theophrasti, pre-emergence, Vele, 11.2 kg/ha, 10-14 days, read-out: herbicidal rating (% inhibition). The procedure, abridged: as §1
Assay [5] deals with Downy Brome. The conditions noted are these: Bromus tectorum, pre-emergence, Dobr, 11.2 kg/ha, 10-14 days, read-out: herbicidal rating (% inhibition). The procedure, abridged:
as §1

Assay [6] relates to Cocklebur. The conditions noted are these: Xanthium strumarium, pre-emergence, Cobu, 11.2 kg/ha, 10-14 days, read-out: herbicidal rating (% inhibition). The method, boiled down:
as §1

In assay [7] the test system is Pennsylvania Smartweed. The conditions noted are these: pre-emergence, Pesw, 11.2 kg/ha, 10-14 days, read-out: herbicidal rating (% inhibition). The procedure, abridged: as §1
In assay [8] the test system is Common Lambsquarters. The note with it: Chenopodium album, pre-emergence, Colq, 11.2 kg/ha, 10-14 days, read-out: herbicidal rating (% inhibition). The procedure, abridged: as §1
In assay [9] the test system is Barnyardgrass. The note with it: Echinochloa crus-galli, pre-emergence, Bygr, 11.2 kg/ha, 10-14 days, read-out: herbicidal rating (% inhibition). The procedure, abridged:
as §1

Assay [10] relates to Canada thistle. The conditions noted are these: Cirsium arvense, pre-emergence, Cath, 11.2 kg/ha, 10-14 days, read-out: herbicidal rating (% inhibition). The method, boiled down: as §1
For assay [11], the system named is Morningglory. The note with it: Ipomoea, pre-emergence, Mogl, 11.2 kg/ha, 10-14 days, read-out: herbicidal rating (% inhibition). The procedure, abridged: as §1

Usually inhibition stands for the share of the control response that was lost under treatment. Turning to `CCOC(=O)c1c(OCC)nc(C(F)(F)F)c(C(=O)OCC)c1CC(C)C` [Compound 39, 3,5-pyridinedicarboxylic acid, 2-ethoxy-4-(2-methylpropyl)-6-(trifluoromethyl)-, diethyl ester], the inhibition at 11200 g/ha in assay [1] is 0 to 24%; in [2], 0 to 24%; in assay [3], 0 to 24%; in assay [4] it was 50 to 74%; in assay [5] it was 75 to 100%; in assay [6] it was 0 to 24%. The inhibition at 11200 g/ha in assay [7] lay in the range of 75 to 100%; in assay [8], 75 to 100%; in assay [9] it was 75 to 100%; in assay [10], 0 to 24%; in assay [11] it was 25 to 49%.

On to `COC(=O)c1c(OC)nc(C(F)(F)F)c(CO)c1CC(C)C` [Compound 40, 3-pyridinecarboxylic acid, 5-(hydroxymethyl)-2-methoxy-4-(2-methylpropyl)-6-(trifluoromethyl)-, methyl ester], for which the inhibition at 11200 g/ha is 75 to 100% in assay [1]; 0 to 24% in [2]; 0 to 24% in assay [3]; 25 to 49% in [4]; 75 to 100% in assay [5]; 0 to 24% in [6]. Further, the inhibition at 11200 g/ha in assay [7] lay in the range of 75 to 100%; in assay [8], 75 to 100%; in assay [9] it was 75 to 100%; in assay [10] it was 0 to 24%; in [11], 0 to 24%.

For `CN=C(SC)c1c(C(F)(F)F)nc(OC)c(C(=O)OC)c1CC(C)C` [Compound 41, 3-pyridinecarboxylic acid, 2-methoxy-5-[(methylimino)(methylthio)methyl]-4-(2-methylpropyl)-6-(trifluoromethyl)-, methyl ester], the inhibition at 11200 g/ha in assay [1] was 75 to 100%; in assay [2] it was 0 to 24%; in assay [3], 0 to 24%; in assay [4], 75 to 100%; in assay [5] it was 75 to 100%; in [6], 25 to 49%. Further, the inhibition at 11200 g/ha in assay [7], in [8], in assay [9], in assay [10] and in assay [11] was 75 to 100% each time.

Turning to `COC(=O)c1c(OC)nc(C(F)(F)F)c(C(=O)n2cccn2)c1CC(C)C` [Compound 42, 3-pyridinecarboxylic acid, 2-methoxy-4-(2-methylpropyl)-5-(1H-pyrazo1-1-ylcarbonyl)-6-(trifluoromethyl)-, methyl ester], the inhibition at 11200 g/ha in assay [1] fell in the range of 75 to 100%; in assay [2], 50 to 74%; in [3] it was 50 to 74%; in assay [4], 75 to 100%; in [5] it was 75 to 100%; in assay [6] it was 75 to 100%. Also, the inhibition at 11200 g/ha in assay [7], in assay [8], in [9], in [10] and in assay [11] was 75 to 100% throughout.

With `COC(=O)c1c(OC)nc(C(F)(F)F)c(C2=NCCO2)c1CC(C)C` [Compound 43, 3-pyridinecarboxylic acid, 5-(4,5-dihydro-2-oxazolyl)-2-methoxy-4-(2-methylpropyl)-6-(trifluoromethyl)-, methyl ester], the inhibition at 11200 g/ha lay within 75 to 100% in [1]; 75 to 100% in assay [2]; 75 to 100% in assay [3]; 75 to 100% in assay [4]; 75 to 100% in assay [5]; 50 to 74% in assay [6]. Further, the inhibition at 11200 g/ha in assay [7], in assay [8], in [9], in assay [10] and in [11] was 75 to 100% each time.

`CCOC(=O)c1c(C(F)(F)F)nc(OC)c(C(=O)OC)c1CC(C)C` [Compound 44, 3,5-pyridinedicarboxylic acid, 2-methoxy-4-(2-methylpropyl)-6-(trifluoromethyl)-, 5-ethyl 3-methyl ester]: the inhibition at 11200 g/ha was 75 to 100% in [1]; 75 to 100% in [2]; 75 to 100% in [3]; 75 to 100% in assay [4]; 75 to 100% in assay [5]; 25 to 49% in assay [6]. For the same molecule, the inhibition at 11200 g/ha in [7], in [8], in [9], in assay [10] and in [11] was 75 to 100% throughout.

As to `CCOc1nc(C(F)(F)F)c(C(=O)SC)c(CC(C)C)c1C(=O)OC` [Compound 45, 3-pyridinecarboxylic acid, 2-ethoxy-4-(2-methylpropyl)-5-[(methylthio)carbonyl]-6-(trifluoromethyl)-, methyl ester], the inhibition at 11200 g/ha is 75 to 100% in assay [1]; 75 to 100% in assay [2]; 75 to 100% in assay [3]; 75 to 100% in assay [4]; 75 to 100% in assay [5]; 0 to 24% in assay [6]. Further, the inhibition at 11200 g/ha in assay [7], in assay [8], in [9], in assay [10] and in assay [11] was 75 to 100% in each case.

In the case of `CCOc1nc(C(F)(F)F)c(C(=NC)SC)c(CC(C)C)c1C(=O)OC` [Compound 46, 3-pyridinecarboxylic acid, 2-ethoxy-5-[(methylimino)(methylthio)methyl]-4-(2-methylpropyl)-6-(trifluoromethyl)-, methyl ester], the inhibition at 11200 g/ha in assay [1] lay within 75 to 100%; in [2], 0 to 24%; in assay [3], 0 to 24%; in assay [4] it was 50 to 74%; in [5], 75 to 100%; in assay [6] it was 0 to 24%. Moreover, the inhibition at 11200 g/ha in assay [7], in assay [8], in assay [9], in assay [10] and in assay [11] was 75 to 100% in each case.

Turning to `COc1nc(C(F)(F)F)c(C(=O)SC)c(CC(C)C)c1C(=O)SC` [Compound 47, 3,5-pyridinedicarbothioic acid, 2-methoxy-4-(2-methylpropyl)-6-(trifluoromethyl)-, S,S,-dimethyl ester], the inhibition at 11200 g/ha lay within 75 to 100% in assay [1]; 75 to 100% in assay [2]; 75 to 100% in assay [3]; 75 to 100% in [4]; 75 to 100% in assay [5]; 25 to 49% in assay [6]. Moreover, the inhibition at 11200 g/ha in assay [7], in [8], in assay [9], in assay [10] and in assay [11] was 75 to 100% each time.

`COC(=O)c1c(OC)nc(C(F)(F)F)c(C(=O)OC)c1C1CCC1` [Compound 48, 3,5-pyridinedicarboxylic acid, 4-cyclobuty1-2-methoxy-6-(trifluoromethyl)-, dimethyl ester]: the inhibition at 11200 g/ha in assay [1], in [2], in assay [3], in assay [4], in assay [5] and in [6] was 75 to 100% each time. For the same molecule, the inhibition at 11200 g/ha in assay [7], in assay [8], in assay [9], in assay [10] and in [11] was 75 to 100% in each case.

Take `CCOc1nc(C(F)(F)F)c(C(=O)n2cccn2)c(CC(C)C)c1C(=O)OC` [Compound 49, 3-pyridinecarboxylic acid, 2-ethoxy-4-(2-methylpropyl)-5-(1H-pyrazo1-1-ylcarbonyl)-6-(trifluoromethyl)-, methyl ester]: the inhibition at 11200 g/ha in assay [1] lay within 75 to 100%; in assay [2], 75 to 100%; in assay [3] it was 50 to 74%; in [4], 75 to 100%; in [5] it was 75 to 100%; in [6], 25 to 49%. Also, the inhibition at 11200 g/ha in assay [7], in assay [8], in [9], in [10] and in [11] was 75 to 100% throughout.
